pIC50: −log10 of the molar value.

Holding throughout (format): cell-based
The target in one assay is T1, human TLR7 (Homo sapiens, UniProt Q9NYK1).
T1 construct: host or cells: HEK-Blue cells (HEK293-derived reporter line)
T1 sequence (Q9NYK1 27-1049): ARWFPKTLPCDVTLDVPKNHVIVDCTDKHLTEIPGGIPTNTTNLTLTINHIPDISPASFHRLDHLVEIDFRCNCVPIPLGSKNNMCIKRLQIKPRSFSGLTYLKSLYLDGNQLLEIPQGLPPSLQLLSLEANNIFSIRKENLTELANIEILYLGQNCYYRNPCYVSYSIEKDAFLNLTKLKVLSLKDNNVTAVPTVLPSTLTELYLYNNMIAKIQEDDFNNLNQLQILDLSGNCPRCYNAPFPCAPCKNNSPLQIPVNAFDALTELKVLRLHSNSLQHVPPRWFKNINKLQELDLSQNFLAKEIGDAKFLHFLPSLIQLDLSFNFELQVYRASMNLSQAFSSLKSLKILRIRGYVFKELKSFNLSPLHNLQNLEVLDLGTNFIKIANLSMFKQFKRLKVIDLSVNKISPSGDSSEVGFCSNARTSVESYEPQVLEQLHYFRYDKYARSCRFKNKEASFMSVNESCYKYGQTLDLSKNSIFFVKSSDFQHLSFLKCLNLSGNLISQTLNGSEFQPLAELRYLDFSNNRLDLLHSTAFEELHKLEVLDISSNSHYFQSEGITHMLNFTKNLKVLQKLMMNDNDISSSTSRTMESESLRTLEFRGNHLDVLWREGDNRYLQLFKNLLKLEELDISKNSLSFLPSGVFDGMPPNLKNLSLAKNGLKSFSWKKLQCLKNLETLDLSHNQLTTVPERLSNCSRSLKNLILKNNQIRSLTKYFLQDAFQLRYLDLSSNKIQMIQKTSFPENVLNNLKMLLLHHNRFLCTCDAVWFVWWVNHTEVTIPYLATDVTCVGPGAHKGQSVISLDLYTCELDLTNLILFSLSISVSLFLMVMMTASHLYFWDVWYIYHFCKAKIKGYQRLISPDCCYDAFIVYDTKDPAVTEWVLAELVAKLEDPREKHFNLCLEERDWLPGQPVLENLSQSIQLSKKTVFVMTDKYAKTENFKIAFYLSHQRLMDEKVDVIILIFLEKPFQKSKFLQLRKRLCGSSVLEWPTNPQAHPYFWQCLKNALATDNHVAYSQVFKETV
Briefly: TLR7 inhibition reporter assay (HEK-Blue cells, SEAP reporter, gardiquimod stimulation). Conditions: HEK-Blue cells overexpressing human TLR7, SEAP reporter, gardiquimod 7.5 μM. The gist of the method: (§1)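 HEK-Blue cells overexpressing human TLR7, TLR8 or TLR9 (NF-κB/AP-1-driven SEAP) pre-treated 30 min at room temperature with compound (0.05 nM–50 μM), then stimulated with gardiquimod 7.5 μM (TLR7), R848 15.9 μM (TLR8) or ODN2006 5 nM (TLR9). SEAP read colorimetrically after 22 h at 37 °C; % inhibition calculated.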
For orientation: In a reporter assay the amount or activity of a reporter protein is the signal.

In a further assay the target is T2, human TLR8 (Homo sapiens, UniProt Q9NR97).
T2 construct: host or cells: HEK-Blue cells (HEK293-derived reporter line)
T2 sequence (Q9NR97 27-1041): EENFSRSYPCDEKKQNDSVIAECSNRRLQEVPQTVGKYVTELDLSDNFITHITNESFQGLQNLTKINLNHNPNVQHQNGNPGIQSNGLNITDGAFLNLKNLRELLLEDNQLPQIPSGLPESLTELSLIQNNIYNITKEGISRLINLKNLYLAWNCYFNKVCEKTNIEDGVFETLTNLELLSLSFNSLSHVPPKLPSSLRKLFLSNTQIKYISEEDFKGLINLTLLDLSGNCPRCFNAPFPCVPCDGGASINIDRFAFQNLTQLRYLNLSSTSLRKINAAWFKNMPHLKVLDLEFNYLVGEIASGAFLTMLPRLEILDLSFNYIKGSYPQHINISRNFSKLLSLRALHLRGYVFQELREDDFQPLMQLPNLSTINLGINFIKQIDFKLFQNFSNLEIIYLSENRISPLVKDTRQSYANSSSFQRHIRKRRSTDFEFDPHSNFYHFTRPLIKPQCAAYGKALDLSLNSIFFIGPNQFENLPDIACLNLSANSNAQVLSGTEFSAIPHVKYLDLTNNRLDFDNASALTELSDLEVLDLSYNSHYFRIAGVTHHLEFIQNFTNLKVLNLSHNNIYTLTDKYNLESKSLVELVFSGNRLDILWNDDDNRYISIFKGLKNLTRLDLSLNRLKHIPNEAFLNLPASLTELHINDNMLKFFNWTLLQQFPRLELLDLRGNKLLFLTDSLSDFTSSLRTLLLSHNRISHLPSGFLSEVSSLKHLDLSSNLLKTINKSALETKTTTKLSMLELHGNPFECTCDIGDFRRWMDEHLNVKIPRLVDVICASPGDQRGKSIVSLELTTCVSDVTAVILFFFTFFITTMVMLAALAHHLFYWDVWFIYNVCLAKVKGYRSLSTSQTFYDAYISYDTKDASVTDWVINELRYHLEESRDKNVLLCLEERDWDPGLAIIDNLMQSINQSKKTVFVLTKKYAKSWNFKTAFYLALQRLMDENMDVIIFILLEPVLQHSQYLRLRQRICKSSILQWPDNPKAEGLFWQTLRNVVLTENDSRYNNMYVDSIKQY
In words: TLR8 inhibition reporter assay (HEK-Blue cells, SEAP reporter, R848 stimulation). The settings on record: HEK-Blue cells overexpressing human TLR8, SEAP reporter, R848 15.9 μM. Summed up: as §1

The next assay addresses T3, human TLR9 (Homo sapiens, UniProt Q9NR96).
T3 construct: host or cells: HEK-Blue cells (HEK293-derived reporter line)
T3 sequence (Q9NR96 26-1032): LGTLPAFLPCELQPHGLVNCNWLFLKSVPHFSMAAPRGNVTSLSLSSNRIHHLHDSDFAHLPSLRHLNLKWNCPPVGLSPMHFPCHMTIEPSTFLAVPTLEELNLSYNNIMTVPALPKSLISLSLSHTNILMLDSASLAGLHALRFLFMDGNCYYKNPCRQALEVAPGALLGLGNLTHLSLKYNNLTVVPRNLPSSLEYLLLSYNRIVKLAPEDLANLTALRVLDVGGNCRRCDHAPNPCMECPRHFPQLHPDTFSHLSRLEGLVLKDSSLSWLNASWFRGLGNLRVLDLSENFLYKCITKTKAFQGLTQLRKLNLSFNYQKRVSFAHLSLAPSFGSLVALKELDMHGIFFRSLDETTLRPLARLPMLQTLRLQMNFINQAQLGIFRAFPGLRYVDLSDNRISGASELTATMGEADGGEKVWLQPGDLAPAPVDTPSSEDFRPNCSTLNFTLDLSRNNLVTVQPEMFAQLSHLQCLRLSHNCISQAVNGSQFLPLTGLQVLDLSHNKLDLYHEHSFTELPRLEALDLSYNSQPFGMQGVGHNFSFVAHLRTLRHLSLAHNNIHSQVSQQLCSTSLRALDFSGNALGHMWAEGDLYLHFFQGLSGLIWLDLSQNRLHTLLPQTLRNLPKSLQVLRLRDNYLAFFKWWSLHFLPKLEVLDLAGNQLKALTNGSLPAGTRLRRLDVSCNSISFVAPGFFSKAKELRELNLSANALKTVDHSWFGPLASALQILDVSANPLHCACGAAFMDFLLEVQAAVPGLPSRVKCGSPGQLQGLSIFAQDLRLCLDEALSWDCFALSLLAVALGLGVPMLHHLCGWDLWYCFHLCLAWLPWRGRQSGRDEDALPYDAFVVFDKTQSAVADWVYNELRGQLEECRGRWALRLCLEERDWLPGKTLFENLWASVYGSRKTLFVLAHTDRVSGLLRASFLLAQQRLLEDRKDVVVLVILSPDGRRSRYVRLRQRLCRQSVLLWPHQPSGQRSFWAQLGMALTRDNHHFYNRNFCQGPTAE
In words: TLR9 inhibition reporter assay (HEK-Blue cells, SEAP reporter, ODN2006 stimulation). Conditions: HEK-Blue cells overexpressing human TLR9, SEAP reporter, ODN2006 5 nM. The gist of the method:
as §1

In the case of `Cc1cc(-c2[nH]c3ccc(C4CCN(C(=O)[C@@H]5C[C@@H](O)CN5)CC4)cc3c2C(C)C)cc2nccn12` [Example 539, ((2S,4R)-4-hydroxypyrrolidin-2-yl)(4-(3-isopropyl-2-(5-methylimidazo[1,2-a]pyridin-7-yl)-1H-indol-5-yl)piperidin-1-yl)methanone], the pIC50 against human TLR7, against human TLR8 and against human TLR9 was 4.30 to 6.00 throughout.

As to `Cc1nc2cc(-c3[nH]c4ccc(C5CCN(C(=O)[C@@H]6C[C@@H](O)CN6)CC5)cc4c3C(C)C)ccn2n1` [Example 540, ((2S,4R)-4-hydroxypyrrolidin-2-yl)(4-(3-isopropyl-2-(2-methyl-[1,2,4]triazolo[1,5-a]pyridin-7-yl)-1H-indol-5-yl)piperidin-1-yl) methanone], the pIC50 (usually −log10 of the IC50, conventionally taken in molar units) on human TLR7 was more than 7.00; at human TLR8, 4.30 to 6.00; on human TLR9 it was 4.30 to 6.00.

With `COc1cc(-c2[nH]c3ccc(C4CCN(C(=O)CN(C)C)CC4)cc3c2C(C)C)cc2nc(C)cn12` [Example 541, 2-(dimethylamino)-1-(4-(3-isopropyl-2-(5-methoxy-2-methylimidazo[1,2-a]pyridin-7-yl)-1H-indol-5-yl)piperidin-1-yl)ethan-1-one], the pIC50 against human TLR7, on human TLR8 and against human TLR9 was 6.00 to 7.00 each time.

For `CC(C)c1c(-c2ccn3nccc3c2)[nH]c2ccc(C3CCN(C(=O)CN(C)C)CC3)cc12` [Example 542, 2-(dimethylamino)-1-(4-(3-isopropyl-2-(pyrazolo[1,5-a]pyridin-5-yl)-1H-indol-5-yl)piperidin-1-yl)ethan-1-one], the pIC50 at human TLR7 is more than 7.00; against human TLR8 it was 6.00 to 7.00; against human TLR9, 4.30 to 6.00.

Regarding `Cc1cc(-c2[nH]c3ccc(C4CCN(C(=O)CN(C)C)CC4)cc3c2C(C)C)nc2scnc12` [Example 543, 2-(dimethylamino)-1-(4-(3-isopropyl-2-(7-methylthiazolo[5,4-b]pyridin-5-yl)-1H-indol-5-yl)piperidin-1-yl)ethan-1-one], the pIC50 was more than 7.00 against human TLR7, more than 7.00 on human TLR8 and 4.30 to 6.00 against human TLR9.

Turning to `CC(C)c1c(-c2cc(F)c3nccn3c2)[nH]c2ccc(C3CCN(C(=O)CN(C)C)CC3)cc12` [Example 544, 2-(dimethylamino)-1-(4-(2-(8-fluoroimidazo[1,2-a]pyridin-6-yl)-3-isopropyl-1H-indol-5-yl)piperidin-1-yl)ethan-1-one], the negative-log IC50 (pIC50) against human TLR7 is more than 7.00; at human TLR8, more than 7.00; on human TLR9, 4.30 to 6.00.

For the compound `CNCC(=O)N1CCC(c2ccc3[nH]c(-c4cc(F)c5nccn5c4)c(CC(F)F)c3c2)CC1` [Example 545, 1-(4-(3-(2,2-difluoroethyl)-2-(8-fluoroimidazo[1,2-a]pyridin-6-yl)-1H-indol-5-yl)piperidin-1-yl)-2-(methylamino)ethan-1-one], the pIC50 at human TLR7 was more than 7.00; against human TLR8, 4.30 to 6.00; against human TLR9, 6.00 to 7.00.

With `CN(C)CC(=O)N1CCC(c2ccc3[nH]c(-c4cc(F)c5nccn5c4)c(CC(F)F)c3c2)CC1` [Example 546, 1-(4-(3-(2,2-difluoroethyl)-2-(8-fluoroimidazo[1,2-a]pyridin-6-yl)-1H-indol-5-yl)piperidin-1-yl)-2-(dimethylamino)ethan-1-one], the results for the pIC50 against human TLR7, on human TLR8 and against human TLR9 were more than 7.00, 6.00 to 7.00 and 6.00 to 7.00, respectively.

Consider `CNCC(=O)N1CCC(c2ccc3[nH]c(-c4cc(F)c5nccn5c4)c(C(C)C)c3c2)CC1` [Example 547, 1-(4-(2-(8-fluoroimidazo[1,2-a]pyridin-6-yl)-3-isopropyl-1H-indol-5-yl)piperidin-1-yl)-2-(methylamino)ethan-1-one], for which the negative-log IC50 (pIC50) against human TLR7 was more than 7.00; on human TLR8, 6.00 to 7.00; against human TLR9, 6.00 to 7.00.

In the case of `CNCC(=O)N1CCC(c2ccc3[nH]c(-c4cn5ccnc5c(C)c4C)c(C(C)C)c3c2)CC1` [Example 548, 1-(4-(2-(7,8-dimethylimidazo[1,2-a]pyridin-6-yl)-3-isopropyl-1H-indol-5-yl)piperidin-1-yl)-2-(methylamino)ethan-1-one], the pIC50 at human TLR7 was more than 7.00; against human TLR8, 6.00 to 7.00; against human TLR9, 6.00 to 7.00.

Turning to `Cc1c(-c2[nH]c3ccc(C4CCN(C(=O)CN(C)C)CC4)cc3c2C(C)C)cn2ccnc2c1C` [Example 549, 2-(dimethylamino)-1-(4-(2-(7,8-dimethylimidazo[1,2-a]pyridin-6-yl)-3-isopropyl-1H-indol-5-yl)piperidin-1-yl)ethan-1-one], the pIC50 against human TLR7 was more than 7.00; against human TLR8, more than 7.00; on human TLR9 it was 6.00 to 7.00.

For `Cc1cn2cc(-c3[nH]c4ccc(C5CCN(C(=O)CN(C)C)CC5)cc4c3CC(F)F)ccc2n1` [Example 551, 1-(4-(3-(2,2-difluoroethyl)-2-(2-methylimidazo[1,2-a]pyridin-6-yl)-1H-indol-5-yl)piperidin-1-yl)-2-(dimethylamino)ethan-1-one], the pIC50 on human TLR7 was more than 7.00; against human TLR8, less than 5.51; on human TLR9, 6.00 to 7.00.

Values taken from patent publication US11739098B2 (BRISTOL-MYERS SQUIBB COMPANY, priority 2017, dated 2023).
